In patent US6034087A, “Nucleoside derivatives and process for preparing thereof” (priority 1994, dated 2000):
≈ marks a conversion by molar mass, not a printed value.

Key:
[1] = test system: HBV; conditions: literature report; cited from earlier work
[2] = test system: HBV; test: Anti-HBV effect in HepG2 2. 2. 15 cell line; format: cell-based, Hepatitis B Virus
Method: (§1) Anti-HBV effect of 1-(5-hydroxymethyl-1,4-dioxan-2-yl)thymine, one of the desired product of the present invention prepared in Example 38, was tested in HepG2 2. 2. 15 cell line. The resultant Effective Concentration (Ec50, EC90), Cytotoxic Concentration (CC50) and Selectivity Index (SI) are shown in the Table below.

[3] = Cytotoxic Concentration in HepG2 2. 2. 15 cell line; format: cell-based; conditions: human, hepg2 2.2.15 cells
Method: as §1

Nc1ccn(C2CCC(CO)O2)c(=O)n1 [2',3'-dideoxy-β-L-cytidine]
anti-HBV activity (in words) [1]: showing anti-HBV activity

Nc1ccn([C@H]2CS[C@@H](CO)O2)c(=O)n1 [2',3'-dideoxy-3'-thiacytidine]
anti-HBV activity (in words) [1]: showing anti-HBV activity

Nc1nc(=O)n(C2CCC(CO)O2)cc1F [2'3'-dideoxy-β-L-5-fluoro-cytidine]
anti-HBV activity (in words) [1]: showing anti-HBV activity

Nc1nc(=O)n([C@H]2CS[C@@H](CO)O2)cc1F [5-fluoro-2',3'-dideoxy-3'-thiacytidine]
anti-HBV activity (in words) [1]: showing anti-HBV activity

Cc1cn(C2COC(CO)CO2)c(=O)[nH]c1=O (centres unmarked) [Compound of Ex.38, 1-(5-hydroxymethyl-1,4-dioxan-2-yl)thymine]
SI (CC50/EC50) (Selectivity Index) ([2]; CC50/EC50): 188
EC50 ([2]; Hepatitis B virus, HepG2 2.2.15, read-out: EC50 (Effective Concentration)): 4.5 µg/mL (≈ 18.6 µM)
EC90 ([2]; Hepatitis B virus, HepG2 2.2.15, read-out: EC90 (Effective Concentration)): 15 µg/mL (≈ 61.9 µM)
CC50 [3]: 846 µg/mL (≈ 3490 µM)
